Earlier results, collected in patent US20050003017A1, “Hypotensive and hypertensive properties of renomedullar extracts” (priority 2000, published 2005).

Conditions: low stability; Svensson et al.

half life: about 30 seconds
Compound: CCCCC[C@H](O)/C=C/[C@H]1O[C@H]2C[C@H](O2)[C@@H]1C/C=C\CCCC(=O)O [thromboxan A2]
